# In patent US9597407B2, “Targeted antimicrobial moieties” (C3 Jian, Inc., priority 2009, dated 2017):
# Experiments:
# [1] = test system: microorganisms; assay: Morphology, biofilm and growth disruption by peptides (Table 5); assay type: cell-based; design: key: A: Peptide aggregates; B: Less hyphal formation; Clumps; Diffuse clumps and small polyps; F: Diffuse growth; H: Thin; I: Growth inhibition; Microcolony formation; Rippled; Small polyps; Thick; W: Halo formation on top, microlonies on bottom
# Source text: In certain embodiments peptides that induce alterations in phenotype or other biological activities can also be used as antimicrobial effector moieties.
# [2] = test system: bacteria; assay: Binding of targeting peptides to microorganisms (Table 3); settings: peptide binding in aqueous buffers that varied depending on peptide solubility; preferably 1x PBS
Substance,"Organism, effect (morphology, biofilm and growth disruption) ([1]; S. pneumoniae)",Target(s) (microorganism bound by the targeting peptide) [2],"Organism, effect (morphology, biofilm and growth disruption) ([1]; E. faecalis)","Organism, effect (morphology, biofilm and growth disruption) ([1]; MRSA)","Organism, effect (morphology, biofilm and growth disruption) ([1]; S. epidermidis)","Organism, effect (morphology, biofilm and growth disruption) ([1]; B. subtilis)","Organism, effect (morphology, biofilm and growth disruption) ([1]; C. albicans)","Organism, effect (morphology, biofilm and growth disruption) ([1]; C. jeikeium)"
PF-665 (chain 1 VLRVATAVGEVPTGL; chain 2 VLRVATAVGEVPTGL; Peptide with targeting and/or antimicrobial activity),S. pneumoniae (H),Mycobacteria spp,–,–,–,–,–,–
PF-666 (chain 1 PNRRSRPR; chain 2 PNRRSRPR; Peptide with targeting and/or antimicrobial activity),S. pneumoniae (A),Mycobacteria spp,–,–,–,–,–,–
PF-667 (chain 1 PAHQRLRIDQRLVADRDMVQDYES; chain 2 PAHQRLRIDQRLVADRDMVQDYES; Peptide with targeting and/or antimicrobial activity),S. pneumoniae (R),Mycobacteria spp,E. faecalis (R),MRSA (R),S. epidermidis (R),–,–,–
PF-668 (chain 1 TNAESMALAFRGRVHMSVNIAGLT; chain 2 TNAESMALAFRGRVHMSVNIAGLT; Peptide with targeting and/or antimicrobial activity),S. pneumoniae (M),Mycobacteria spp,E. faecalis (D),MRSA (R),S. epidermidis (M),B. subtilis (A),C. albicans (A),C. jeikeium (D)
PF-675 (chain 1 EIIPISPTRRCEMHTMSSAEYRGL; chain 2 EIIPISPTRRCEMHTMSSAEYRGL; Peptide with targeting and/or antimicrobial activity),S. pneumoniae (C),Mycobacteria spp,E. faecalis (R),–,–,–,–,–
PF-677 (chain 1 TCRGAGMH; chain 2 TCRGAGMH; Peptide with targeting and/or antimicrobial activity),S. pneumoniae (D),Mycobacteria spp,E. faecalis (R),MRSA (D),S. epidermidis (R),–,–,–
PF-680 (chain 1 ADPHPTTGI; chain 2 ADPHPTTGI; Peptide with targeting and/or antimicrobial activity),–,Mycobacteria spp,–,MRSA (R),–,–,–,–
PF-681 (chain 1 TALTTVGVSGARLITYCVGVEDI; chain 2 TALTTVGVSGARLITYCVGVEDI; Peptide with targeting and/or antimicrobial activity),S. pneumoniae (M),M. smegmatis,E. faecalis (R),MRSA (M),S. epidermidis (M),–,–,C. jeikeium (R)
PF-682 (chain 1 RRGKSEQGLSRR; chain 2 RRGKSEQGLSRR; Peptide with targeting and/or antimicrobial activity),S. pneumoniae (A),Mycobacteria spp,–,–,–,–,–,–
PF-683 (chain 1 LWPVA; chain 2 LWPVA; Peptide with targeting and/or antimicrobial activity),S. pneumoniae (H),Mycobacteria spp,–,MRSA (R),S. epidermidis (R),–,–,–
PF-684 (chain 1 RKLSLASGFALWRRSLV; chain 2 RKLSLASGFALWRRSLV; Peptide with targeting and/or antimicrobial activity),S. pneumoniae (C),Mycobacteria spp,E. faecalis (A),–,–,–,C. albicans (B),–
PF-685 (chain 1 PTLWLACL; chain 2 PTLWLACL; Peptide with targeting and/or antimicrobial activity),S. pneumoniae (M),Mycobacteria spp,E. faecalis (R),MRSA (M),S. epidermidis (M),–,–,C. jeikeium (R)
PF-686 (chain 1 LAVLMGYIGYRGWSGKRHINRQ; chain 2 LAVLMGYIGYRGWSGKRHINRQ; Peptide with targeting and/or antimicrobial activity),S. pneumoniae (A),M. smegmatis,E. faecalis (R),MRSA (M),S. epidermidis (H),B. subtilis (I),C. albicans (B),–
PF-687 (chain 1 AKRVLSLAVAPHRRQPVQGT; chain 2 AKRVLSLAVAPHRRQPVQGT; Peptide with targeting and/or antimicrobial activity),S. pneumoniae (A),Mycobacteria spp,–,–,–,–,–,–
PF-688 (chain 1 ARNHAVIPAG; chain 2 ARNHAVIPAG; Peptide with targeting and/or antimicrobial activity),S. pneumoniae (A),Mycobacteria spp,–,–,–,–,–,–
PF-690 (chain 1 MIPLAGDPVSSHRTVEFGVLGTYLVSGGSL; chain 2 MIPLAGDPVSSHRTVEFGVLGTYLVSGGSL; Peptide with targeting and/or antimicrobial activity),S. pneumoniae (M),Mycobacteria spp,E. faecalis (R),MRSA (R),S. epidermidis (R),–,–,–
PF-691 (chain 1 HRTVEFGVLGTYLVSGGSL; chain 2 HRTVEFGVLGTYLVSGGSL; Peptide with targeting and/or antimicrobial activity),S. pneumoniae (R),Mycobacteria spp,–,–,–,–,–,–
PF-692 (chain 1 GVAREDPLEPDPLAPIIDDSR; chain 2 GVAREDPLEPDPLAPIIDDSR; Peptide with targeting and/or antimicrobial activity),–,Mycobacteria spp,–,MRSA (R),–,–,–,–
PF-693 (chain 1 PDPAR; chain 2 PDPAR; Peptide with targeting and/or antimicrobial activity),S. pneumoniae (A),Mycobacteria spp,–,–,–,–,–,–
PF-694 (chain 1 DLIRPLYSMSAPSVA; chain 2 DLIRPLYSMSAPSVA; Peptide with targeting and/or antimicrobial activity),S. pneumoniae (A),Mycobacteria spp,–,MRSA (R),–,–,–,–
PF-695 (chain 1 ALSVMLGNIPLVVPNANQL; chain 2 ALSVMLGNIPLVVPNANQL; Peptide with targeting and/or antimicrobial activity),S. pneumoniae (C),Mycobacteria spp,E. faecalis (R),MRSA (R),–,–,–,–
PF-696 (chain 1 IRSGISAAYARPLR; chain 2 IRSGISAAYARPLR; Peptide with targeting and/or antimicrobial activity),S. pneumoniae (H),Mycobacteria spp,–,–,–,–,–,–
PF-697 (chain 1 RADARAK; chain 2 RADARAK; Peptide with targeting and/or antimicrobial activity),S. pneumoniae (H),Mycobacteria spp,–,–,–,–,C. albicans (H),–
PF-698 (chain 1 SSGRAGVKCRRPTGR; chain 2 SSGRAGVKCRRPTGR; Peptide with targeting and/or antimicrobial activity),S. pneumoniae (A),Mycobacteria spp,E. faecalis (A),–,–,–,C. albicans (H),–
PF-699 (chain 1 GRAGVKCRRPTGR; chain 2 GRAGVKCRRPTGR; Peptide with targeting and/or antimicrobial activity),S. pneumoniae (A),Mycobacteria spp,–,–,–,–,–,–
PF-700 (chain 1 LNWPFTGR; chain 2 LNWPFTGR; Peptide with targeting and/or antimicrobial activity),S. pneumoniae (C),Mycobacteria spp,–,–,–,–,–,–
